The text below walks through data of ChEMBL document CHEMBL1201862, “PubChem BioAssay data set” (2004).

The test system of assay [1] is BJ. Kind of assay: cytotoxicity toward BJ-TERT fibroblasts, dose response, cell-based, RAS-independent, luminescence (AID 1933). The format is functional. Conditions: Homo sapiens.
Assay [2] deals with BJ. Kind of assay: cells. The format is functional, cell-based. The note with it: Homo sapiens.
The target in assay [3] is Luciferin 4-monooxygenase (Photinus pyralis, UniProt P08659). Kind of assay: firefly luciferase enzyme inhibitors, dose response, biochemical, luminescence (AID 1891).
The nature of assay [4]: Luminescence Cell-Based Dose Confirmation HTS to Identify Inhibitors of Platelet Dense Granule Release. [Related pubchem assays: 1663 (Primary HTS), 1678 (Summary of Project)]. In kind it is functional.
The nature of assay [5]: microbe, parasite or virus in culture. The format is functional. Conditions: Mycobacterium tuberculosis.
The test system of assay [6] is BJ. Kind of assay: cytotoxicity toward BJ-TERT-LT-ST fibroblasts, dose response, cell-based, RAS-independent, luminescence (AID 1935).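 Further: BJ fibroblasts immortalized with TERT plus LT and ST oncogenes.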 In kind it is functional. The note with it: Homo sapiens.
Assay [7] can be described thus: cytotoxicity toward DRD oncogenic fibroblasts, dose response, cell-based, non-viral oncogenic, luminescence (AID 1934). The note with it: Homo sapiens. In kind it is functional.
Assay [8] is described as follows: inhibitors of PGC1a acetylation in cells, dose response, cell-based, cherry-picked samples (AID 720514).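 Further: potency may reflect raised or lowered acetylation signal.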 The format is functional.
For the next assay, the target named is T1, Aminopeptidase N (Plasmodium falciparum FcB1/Columbia, UniProt O96935).
T1 sequence (O96935 whole entry): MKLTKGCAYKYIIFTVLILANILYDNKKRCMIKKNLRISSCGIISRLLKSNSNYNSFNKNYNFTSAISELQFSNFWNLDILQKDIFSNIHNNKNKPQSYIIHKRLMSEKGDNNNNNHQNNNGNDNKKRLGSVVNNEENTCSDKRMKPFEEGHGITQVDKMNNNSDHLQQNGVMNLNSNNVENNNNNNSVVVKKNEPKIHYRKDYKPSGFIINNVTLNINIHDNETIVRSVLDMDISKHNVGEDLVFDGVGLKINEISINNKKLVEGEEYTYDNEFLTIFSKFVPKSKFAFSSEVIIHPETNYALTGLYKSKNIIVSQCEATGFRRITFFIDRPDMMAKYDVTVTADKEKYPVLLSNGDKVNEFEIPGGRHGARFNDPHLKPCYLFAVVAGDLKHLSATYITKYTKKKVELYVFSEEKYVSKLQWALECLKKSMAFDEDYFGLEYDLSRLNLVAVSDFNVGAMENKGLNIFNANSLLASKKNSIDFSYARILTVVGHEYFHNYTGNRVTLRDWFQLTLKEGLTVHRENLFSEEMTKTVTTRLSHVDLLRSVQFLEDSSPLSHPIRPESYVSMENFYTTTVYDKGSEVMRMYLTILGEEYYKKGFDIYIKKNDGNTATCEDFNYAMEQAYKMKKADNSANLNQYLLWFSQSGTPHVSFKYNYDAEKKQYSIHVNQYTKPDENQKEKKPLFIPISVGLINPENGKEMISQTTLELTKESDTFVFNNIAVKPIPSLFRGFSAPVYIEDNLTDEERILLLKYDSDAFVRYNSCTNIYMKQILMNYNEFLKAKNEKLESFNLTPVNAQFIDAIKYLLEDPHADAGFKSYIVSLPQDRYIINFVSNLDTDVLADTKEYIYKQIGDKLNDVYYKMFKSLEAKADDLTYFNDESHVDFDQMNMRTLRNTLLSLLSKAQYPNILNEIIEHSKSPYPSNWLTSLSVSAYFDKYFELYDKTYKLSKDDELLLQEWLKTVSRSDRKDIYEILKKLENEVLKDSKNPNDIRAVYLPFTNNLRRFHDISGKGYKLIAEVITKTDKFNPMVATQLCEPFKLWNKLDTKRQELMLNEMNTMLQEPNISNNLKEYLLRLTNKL
As to the kind of experiment: P. falciparum M1AAP inhibitors, biochemical, fluorogenic H-Leu-NHMec substrate, 1536-well (AID 1445). Further details: species or system Plasmodium falciparum 3D7, 3D7.

The target in assay [9] is T2, DNA repair and recombination protein RAD54-like (Homo sapiens, UniProt Q92698).
T2 sequence (Q92698 whole entry): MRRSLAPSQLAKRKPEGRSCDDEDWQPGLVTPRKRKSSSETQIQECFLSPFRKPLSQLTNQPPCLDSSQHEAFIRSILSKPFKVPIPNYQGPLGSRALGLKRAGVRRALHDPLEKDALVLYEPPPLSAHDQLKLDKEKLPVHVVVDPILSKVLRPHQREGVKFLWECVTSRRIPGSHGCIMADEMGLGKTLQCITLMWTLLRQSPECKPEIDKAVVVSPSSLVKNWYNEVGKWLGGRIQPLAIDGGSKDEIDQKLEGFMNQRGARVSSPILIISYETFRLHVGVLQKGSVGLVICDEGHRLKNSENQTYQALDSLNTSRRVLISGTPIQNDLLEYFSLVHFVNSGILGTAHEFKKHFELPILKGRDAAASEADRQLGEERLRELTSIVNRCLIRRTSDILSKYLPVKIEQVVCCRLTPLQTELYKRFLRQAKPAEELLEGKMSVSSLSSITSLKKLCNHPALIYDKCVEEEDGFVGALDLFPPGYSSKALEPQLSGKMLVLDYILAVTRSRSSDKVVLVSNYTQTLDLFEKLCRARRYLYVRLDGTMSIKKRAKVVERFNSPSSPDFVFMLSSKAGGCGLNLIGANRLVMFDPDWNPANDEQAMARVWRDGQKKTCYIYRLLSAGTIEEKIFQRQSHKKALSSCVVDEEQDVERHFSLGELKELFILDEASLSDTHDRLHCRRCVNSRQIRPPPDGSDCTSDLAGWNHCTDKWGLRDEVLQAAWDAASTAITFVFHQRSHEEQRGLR
Kind of assay: inhibitors of human RAD54 branch migration, confirmation, biochemical, fluorescence, cherry-picked samples, dose series (AID 651657). The format is functional.

The nature of assay [10]: cells. The note with it: A549.
The nature of assay [11]: cells. The note with it: HEK293.
The target in another assay is T3, Caspase-3 (Homo sapiens, UniProt P42574).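 Further: Dose-response selectivity test against caspase-3 for candidate inhibitors of sentrin-specific proteases (SENPs).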
T3 sequence (P42574 whole entry): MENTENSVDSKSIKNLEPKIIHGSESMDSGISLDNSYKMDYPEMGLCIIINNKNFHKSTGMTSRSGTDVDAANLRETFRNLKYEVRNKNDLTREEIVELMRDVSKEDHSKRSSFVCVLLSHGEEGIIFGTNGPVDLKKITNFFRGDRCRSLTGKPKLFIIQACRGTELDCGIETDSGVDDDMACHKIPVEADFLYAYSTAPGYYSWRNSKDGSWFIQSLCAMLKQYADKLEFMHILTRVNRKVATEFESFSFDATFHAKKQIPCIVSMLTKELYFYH
In kind it is functional.

Assay [12] deals with T4, Sentrin-specific protease 7 (Homo sapiens, UniProt Q9BQF6).
T4 sequence (Q9BQF6 whole entry): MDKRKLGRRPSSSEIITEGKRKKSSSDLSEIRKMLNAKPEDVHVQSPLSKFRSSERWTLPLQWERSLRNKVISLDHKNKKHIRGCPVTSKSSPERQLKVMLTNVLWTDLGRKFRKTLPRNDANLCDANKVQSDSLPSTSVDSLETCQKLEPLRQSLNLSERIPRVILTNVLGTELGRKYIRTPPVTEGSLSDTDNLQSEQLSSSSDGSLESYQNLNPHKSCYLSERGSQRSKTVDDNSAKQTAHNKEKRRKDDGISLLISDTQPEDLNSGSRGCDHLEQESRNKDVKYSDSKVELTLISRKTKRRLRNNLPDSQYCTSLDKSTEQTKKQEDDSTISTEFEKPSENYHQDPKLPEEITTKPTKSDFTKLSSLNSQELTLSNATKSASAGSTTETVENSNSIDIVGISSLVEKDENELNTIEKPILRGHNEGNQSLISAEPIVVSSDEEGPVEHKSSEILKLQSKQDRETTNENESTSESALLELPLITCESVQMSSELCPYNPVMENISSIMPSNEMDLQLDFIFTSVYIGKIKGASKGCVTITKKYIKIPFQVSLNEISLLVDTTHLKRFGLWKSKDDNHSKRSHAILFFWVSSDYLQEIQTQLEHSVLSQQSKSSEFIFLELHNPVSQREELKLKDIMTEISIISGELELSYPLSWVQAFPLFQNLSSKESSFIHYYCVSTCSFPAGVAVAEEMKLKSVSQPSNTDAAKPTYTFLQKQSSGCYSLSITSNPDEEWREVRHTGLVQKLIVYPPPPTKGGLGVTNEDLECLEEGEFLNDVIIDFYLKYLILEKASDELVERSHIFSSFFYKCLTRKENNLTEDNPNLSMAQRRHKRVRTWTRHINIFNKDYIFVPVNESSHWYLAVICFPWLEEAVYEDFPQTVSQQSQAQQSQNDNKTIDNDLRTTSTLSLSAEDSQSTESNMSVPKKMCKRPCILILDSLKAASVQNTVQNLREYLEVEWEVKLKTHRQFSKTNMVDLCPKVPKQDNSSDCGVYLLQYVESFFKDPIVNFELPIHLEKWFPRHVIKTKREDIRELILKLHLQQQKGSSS
The format is functional.

In assay [13] the target is T5, Sentrin-specific protease 6 (Homo sapiens, UniProt Q9GZR1).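 Further: Luminescence-based dose-response confirmatory assay of SENP6 inhibition, following up an ultra-high-throughput screen.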
T5 sequence (Q9GZR1 whole entry): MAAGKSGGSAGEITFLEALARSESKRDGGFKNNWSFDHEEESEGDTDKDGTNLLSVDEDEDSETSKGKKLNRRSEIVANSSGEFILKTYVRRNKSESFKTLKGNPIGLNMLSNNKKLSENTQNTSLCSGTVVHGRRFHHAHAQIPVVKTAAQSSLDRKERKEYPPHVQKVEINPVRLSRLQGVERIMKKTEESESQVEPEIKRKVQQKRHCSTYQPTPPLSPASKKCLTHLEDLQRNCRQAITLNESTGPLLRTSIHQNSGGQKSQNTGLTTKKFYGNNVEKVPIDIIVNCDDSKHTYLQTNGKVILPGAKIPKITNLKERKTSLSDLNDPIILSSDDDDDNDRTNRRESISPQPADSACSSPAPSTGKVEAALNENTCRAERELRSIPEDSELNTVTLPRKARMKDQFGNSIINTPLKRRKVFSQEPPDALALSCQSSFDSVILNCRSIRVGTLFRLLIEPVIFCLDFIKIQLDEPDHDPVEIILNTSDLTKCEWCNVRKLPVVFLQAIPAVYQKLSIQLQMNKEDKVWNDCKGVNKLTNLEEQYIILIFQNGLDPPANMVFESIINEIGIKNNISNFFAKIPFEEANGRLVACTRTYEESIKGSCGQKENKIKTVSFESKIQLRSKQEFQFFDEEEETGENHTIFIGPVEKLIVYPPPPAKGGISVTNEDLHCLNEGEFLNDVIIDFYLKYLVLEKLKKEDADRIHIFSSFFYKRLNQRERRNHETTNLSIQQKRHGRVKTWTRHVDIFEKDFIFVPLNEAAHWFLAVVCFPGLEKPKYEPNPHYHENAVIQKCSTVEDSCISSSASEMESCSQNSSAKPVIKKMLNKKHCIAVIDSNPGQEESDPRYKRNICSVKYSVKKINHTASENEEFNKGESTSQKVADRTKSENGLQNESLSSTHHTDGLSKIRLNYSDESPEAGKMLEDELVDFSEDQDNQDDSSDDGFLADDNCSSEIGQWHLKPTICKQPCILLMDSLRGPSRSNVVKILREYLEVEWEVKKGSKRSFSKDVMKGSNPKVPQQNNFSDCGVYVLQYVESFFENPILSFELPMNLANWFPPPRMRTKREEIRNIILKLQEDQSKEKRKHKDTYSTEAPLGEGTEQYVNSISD
In kind it is functional.

The target in assay [14] is T6, Sentrin-specific protease 8 (Homo sapiens, UniProt Q96LD8).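 Further: luminescence read-out of SENP8 inhibition, dose-response confirmation following an ultra-high-throughput screen.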
T6 sequence (Q96LD8 whole entry): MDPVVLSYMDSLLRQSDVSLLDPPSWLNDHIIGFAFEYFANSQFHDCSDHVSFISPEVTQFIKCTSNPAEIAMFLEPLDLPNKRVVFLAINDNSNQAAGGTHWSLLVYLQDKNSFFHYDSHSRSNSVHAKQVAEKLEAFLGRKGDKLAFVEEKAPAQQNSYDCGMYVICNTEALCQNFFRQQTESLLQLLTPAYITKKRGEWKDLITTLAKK
The format is functional.

Calls of active or inactive are those of the source.

What is called EC50 is the concentration giving half of the maximal effect. The AC50 is the midpoint of the concentration-response curve, whichever way the signal moves. Usually IC50 stands for the concentration that gives 50% inhibition.

Chain of Luciferin 4-monooxygenase (P08659 whole entry): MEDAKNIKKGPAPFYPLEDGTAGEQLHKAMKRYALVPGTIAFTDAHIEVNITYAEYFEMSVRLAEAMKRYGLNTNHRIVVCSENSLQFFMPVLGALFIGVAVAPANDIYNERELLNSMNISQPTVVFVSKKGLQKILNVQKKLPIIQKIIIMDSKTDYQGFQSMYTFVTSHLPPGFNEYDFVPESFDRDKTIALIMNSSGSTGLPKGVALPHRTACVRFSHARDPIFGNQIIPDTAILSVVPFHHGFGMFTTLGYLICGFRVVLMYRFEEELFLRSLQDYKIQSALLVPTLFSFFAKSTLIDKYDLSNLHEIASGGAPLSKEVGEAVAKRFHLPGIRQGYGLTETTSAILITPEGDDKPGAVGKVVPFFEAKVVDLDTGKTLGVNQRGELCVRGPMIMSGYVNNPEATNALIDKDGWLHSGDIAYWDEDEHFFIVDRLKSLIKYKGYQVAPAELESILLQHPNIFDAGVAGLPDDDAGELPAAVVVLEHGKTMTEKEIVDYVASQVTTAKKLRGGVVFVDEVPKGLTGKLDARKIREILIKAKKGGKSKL

For `COc1ccccc1N1CCN(c2ccc(-c3ccccc3)nn2)CC1`, the 50% effective concentration (EC50) in the assay with BJ [1] was 2.33 µM (active); with BJ [2], 17 µM (active); in assay [3] it was 3.72 µM (active); in assay [4], 5.08 µM (active); with BJ [6] it was 1.93 µM (active); in assay [7], 1.7 µM (active). In assay [5], the CC50 is 13.7 µM (active). Moreover, the AC50 in assay [8] was 25.9 µM (active).
In the case of `CCn1c(=N)c(C(=O)NCCCOC)cc2c(=O)n3cccc(C)c3nc21`, the IC50 at Aminopeptidase N is 50.3 µM (active). The concentration at half-maximal activity (AC50) in [9] is 33.6 µM (active); in “cells [10]”, > 52 µM (inactive); in the assay “cells [11]” it was > 52 µM (inactive).
For the compound `CC(=O)c1sc(N/N=C\c2ccc(N(C)C)cc2)nc1C`, the half-maximal inhibitory concentration (IC50) is 9.56 µM (active) at Caspase-3, 3.05 µM (active) in [12], 3.82 µM (active) in assay [13] and 4.08 µM (active) in [14]. For the same compound, the AC50 in the assay “cells [11]” was > 52 µM (inactive).
In the case of `Cc1cccc(S(=O)(=O)N2C[C@@H]3N[C@H](C2)[C@@H]3c2ccc(-c3ccccc3C)cc2)c1`, in [8], the concentration at half-maximal activity (AC50) is 12.8 µM (active).
